Source: patent US12178837B2, “Composition for skin-whitening or preventing or improving skin wrinkles comprising green tea extract which has modified amounts of ingredients” (AMOREPACIFIC CORPORATION, priority 2019, dated 2024)

Test system: MMP-1 (matrix metalloproteinase-1)
Test: MMP-1 inhibition activity: ELISA of MMP-1 produced by aged human dermal fibroblasts
Type: cell-based
Details: EGCG + GCG total 3 μg/ml at the given weight ratio
Experimental: The evaluation on MMP-1 inhibition activity was conducted in order to verify the effects of the green tea extracts of Samples 1 and 2 of Example 1 in inhibiting the production of MMP-1, which is skin tissue breakdown enzyme, in human skin fibroblast of aged human skin and in inhibiting the production of MMP-1 according to the weight ratio of EGCG and GCG, and the amount of GCG. To be specific, the evaluation was conducted through the following steps.
Normal human dermal fibroblast (NHDF; Lonza, Switzerland) was cultured in a DMEM medium (Dulbecco's modified Eagle's Medium, Gibco 1210-0038) comprising 10% of fetal bovine serum, and the culturing was all performed in a 37° C., 5% CO2 culture medium. Cells that had 6-9 sub-culture frequencies were used as young cells, and aged dermal fibroblasts were obtained by sub-culturing 37 times in such a manner that the number of cells was calculated for every sub-culture and then ⅕ of the total number of cells were newly cultured. The aged dermal fibroblasts were treated with EGCG and GCG depending on the ratio of EGCG:GCG and the concentration of GCG, or treated with Sample 1 or Sample 2.
In order to verify the amount of MMP-1 produced, the enzyme-linked immunosorbent assay (ELISA) method was used (Amersham, USA). The culture medium of the cells treated with the samples at the step 1-1 was collected and the supernatant was isolated by centrifuging at 1000×g, and then the culture medium was put into a 96-well plate coated with an MMP-1 antibody, and then a secondary antibody (horse reddish peroxidase, HRP) was reacted at room temperature for 1 hour, and washed with 100 μL PBS. The amount of MMP-1 produced was confirmed by measuring absorbance at a 490 nm wavelength after reaction and confirming its degree of color formation using a TMB substrate solution (Pierce, USA), and the MMP-1 inhibition activity (%) was calculated using the following equation.
MMP-1 inhibition activity (%)=(O.D. of the group treated with the sample at 490 nm/O.D. of the group not treated with sample at 490 nm)×100

Compound	MMP-1 inhibition activity (%) Processed after 24 hours [%]	MMP-1 inhibition activity (%) Processed immediately [%]
O=C(O[C@@H]1Cc2c(O)cc(O)cc2O[C@H]1c1cc(O)c(O)c(O)c1)c1cc(O)c(O)c(O)c1 [GCG, (−)-gallocatechin gallate]	10 ± 1.0	55 ± 9.2
(−)-epigallocatechin gallate [EGCG]	6 ± 1.0	56 ± 9.7
